Results on six molecules are retold here after ChEMBL document CHEMBL1629685, “Macrolide and clindamycin resistance in Streptococcus milleri group isolates from the airways of cystic fibrosis patients” (2010).

Format in all cases: functional
The subject of assay [1] is Streptococcus anginosus. The experiment in a line: Antimicrobial activity against Streptococcus anginosus obtained from patient with cystic fibrosis assessed as non-susceptible isolates grown on mueller-Hinton blood agar at 30 ug/ml after 24 hrs at 37 degC by disk diffusion method in presence of 5% defribinated sheep blood. A general note: Agar diffusion results depend on both activity and mobility in agar.

Assay [2] deals with Streptococcus constellatus. The experiment in a line: Antimicrobial activity against Streptococcus constellatus obtained from patient with cystic fibrosis assessed as non-susceptible isolates grown on mueller-Hinton blood agar at 30 ug/ml after 24 hrs at 37 degC by disk diffusion method in presence of 5% defribinated sheep blood.
For assay [3], the system named is Streptococcus intermedius. In words: Antimicrobial activity against Streptococcus intermedius obtained from patient with cystic fibrosis assessed as non-susceptible isolates grown on mueller-Hinton blood agar at 30 ug/ml after 24 hrs at 37 degC by disk diffusion method in presence of 5% defribinated sheep blood.
The test system of assay [4] is Streptococcus constellatus. In words: Antimicrobial activity against invasive Streptococcus constellatus obtained from non-cystic fibrosis patient assessed as non-susceptible isolates grown on mueller-Hinton blood agar at 30 ug/ml after 24 hrs at 37 degC by disk diffusion method in presence of 5% defribinated sheep blood.
Assay [5] relates to Streptococcus intermedius. The experiment in a line: Antimicrobial activity against invasive Streptococcus intermedius obtained from non-cystic fibrosis patient assessed as non-susceptible isolates grown on mueller-Hinton blood agar at 30 ug/ml after 24 hrs at 37 degC by disk diffusion method in presence of 5% defribinated sheep blood.
For assay [6], the system named is Streptococcus anginosus. In words: Antimicrobial activity against Streptococcus anginosus obtained from patient with cystic fibrosis assessed as non-susceptible isolates grown on brain heart infusion agar at 30 ug/ml after 24 hrs at 37 degC by disk diffusion method.
Assay [7] concerns Streptococcus constellatus. The experiment in a line: Antimicrobial activity against Streptococcus constellatus obtained from patient with cystic fibrosis assessed as non-susceptible isolates grown on brain heart infusion agar at 30 ug/ml after 24 hrs at 37 degC by disk diffusion method.
The test system of assay [8] is Streptococcus intermedius. In words: Antimicrobial activity against Streptococcus intermedius obtained from patient with cystic fibrosis assessed as non-susceptible isolates grown on brain heart infusion agar at 30 ug/ml after 24 hrs at 37 degC by disk diffusion method.
Assay [9] concerns Streptococcus anginosus. The experiment in a line: Antimicrobial activity against invasive Streptococcus anginosus obtained from non-cystic fibrosis patient assessed as non-susceptible isolates grown on mueller-Hinton blood agar at 30 ug/ml after 24 hrs at 37 degC by disk diffusion method in presence of 5% defribinated sheep blood.
In assay [10] the test system is Streptococcus anginosus. In words: Antimicrobial activity against invasive Streptococcus anginosus obtained from non-cystic fibrosis patient assessed as non-susceptible isolates grown on brain heart infusion agar at 30 ug/ml after 24 hrs at 37 degC by disk diffusion method.
Assay [11] deals with Streptococcus constellatus. The experiment in a line: Antimicrobial activity against invasive Streptococcus constellatus obtained from non-cystic fibrosis patient assessed as non-susceptible isolates grown on brain heart infusion agar at 30 ug/ml after 24 hrs at 37 degC by disk diffusion method.
The subject of assay [12] is Streptococcus intermedius. In words: Antimicrobial activity against invasive Streptococcus intermedius obtained from non-cystic fibrosis patient assessed as non-susceptible isolates grown on brain heart infusion agar at 30 ug/ml after 24 hrs at 37 degC by disk diffusion method.
In assay [13] the test system is Streptococcus anginosus. The experiment in a line: Antimicrobial activity against Streptococcus anginosus obtained from patient with cystic fibrosis assessed as non-susceptible isolates grown on mueller-Hinton blood agar at 15 ug/ml after 24 hrs at 37 degC by disk diffusion method in presence of 5% defribinated sheep blood.
In assay [14] the test system is Streptococcus anginosus. In words: Antimicrobial activity against Streptococcus anginosus obtained from patient with cystic fibrosis assessed as non-susceptible isolates grown on brain heart infusion agar at 15 ug/ml after 24 hrs at 37 degC by disk diffusion method.
Assay [15] has as its system Streptococcus constellatus. In words: Antimicrobial activity against Streptococcus constellatus obtained from patient with cystic fibrosis assessed as non-susceptible isolates grown on mueller-Hinton blood agar at 15 ug/ml after 24 hrs at 37 degC by disk diffusion method in presence of 5% defribinated sheep blood.
Assay [16] deals with Streptococcus constellatus. The experiment in a line: Antimicrobial activity against Streptococcus constellatus obtained from patient with cystic fibrosis assessed as non-susceptible isolates grown on brain heart infusion agar at 15 ug/ml after 24 hrs at 37 degC by disk diffusion method.
The subject of assay [17] is Streptococcus intermedius. The experiment in a line: Antimicrobial activity against Streptococcus intermedius obtained from patient with cystic fibrosis assessed as non-susceptible isolates grown on mueller-Hinton blood agar at 15 ug/ml after 24 hrs at 37 degC by disk diffusion method in presence of 5% defribinated sheep blood.
The subject of assay [18] is Streptococcus intermedius. In words: Antimicrobial activity against Streptococcus intermedius obtained from patient with cystic fibrosis assessed as non-susceptible isolates grown on brain heart infusion agar at 15 ug/ml after 24 hrs at 37 degC by disk diffusion method.
Assay [19] concerns Streptococcus anginosus. In words: Antimicrobial activity against invasive Streptococcus anginosus obtained from non-cystic fibrosis patient assessed as non-susceptible isolates grown on mueller-Hinton blood agar at 15 ug/ml after 24 hrs at 37 degC by disk diffusion method in presence of 5% defribinated sheep blood.
The subject of assay [20] is Streptococcus anginosus. In words: Antimicrobial activity against invasive Streptococcus anginosus obtained from non-cystic fibrosis patient assessed as non-susceptible isolates grown on brain heart infusion agar at 15 ug/ml after 24 hrs at 37 degC by disk diffusion method.
In assay [21] the test system is Streptococcus constellatus. The experiment in a line: Antimicrobial activity against invasive Streptococcus constellatus obtained from non-cystic fibrosis patient assessed as non-susceptible isolates grown on mueller-Hinton blood agar at 15 ug/ml after 24 hrs at 37 degC by disk diffusion method in presence of 5% defribinated sheep blood.
Assay [22] deals with Streptococcus constellatus. The experiment in a line: Antimicrobial activity against invasive Streptococcus constellatus obtained from non-cystic fibrosis patient assessed as non-susceptible isolates grown on brain heart infusion agar at 15 ug/ml after 24 hrs at 37 degC by disk diffusion method.
Assay [23] relates to Streptococcus intermedius. The experiment in a line: Antimicrobial activity against invasive Streptococcus intermedius obtained from non-cystic fibrosis patient assessed as non-susceptible isolates grown on mueller-Hinton blood agar at 15 ug/ml after 24 hrs at 37 degC by disk diffusion method in presence of 5% defribinated sheep blood.
Assay [24] deals with Streptococcus intermedius. In words: Antimicrobial activity against invasive Streptococcus intermedius obtained from non-cystic fibrosis patient assessed as non-susceptible isolates grown on brain heart infusion agar at 15 ug/ml after 24 hrs at 37 degC by disk diffusion method.
The subject of assay [25] is Streptococcus anginosus. In words: Antimicrobial activity against Streptococcus anginosus obtained from patient with cystic fibrosis assessed as non-susceptible isolates grown on mueller-Hinton blood agar at 2 ug/ml after 24 hrs at 37 degC by disk diffusion method in presence of 5% defribinated sheep blood.
Assay [26] has as its system Streptococcus anginosus. In words: Antimicrobial activity against Streptococcus anginosus obtained from patient with cystic fibrosis assessed as non-susceptible isolates grown on brain heart infusion agar at 2 ug/ml after 24 hrs at 37 degC by disk diffusion method. To be noted: at 2 µg/mL.
Assay [27] concerns Streptococcus constellatus. The experiment in a line: Antimicrobial activity against Streptococcus constellatus obtained from patient with cystic fibrosis assessed as non-susceptible isolates grown on mueller-Hinton blood agar at 2 ug/ml after 24 hrs at 37 degC by disk diffusion method in presence of 5% defribinated sheep blood.
Assay [28] has as its system Streptococcus constellatus. The experiment in a line: Antimicrobial activity against Streptococcus constellatus obtained from patient with cystic fibrosis assessed as non-susceptible isolates grown on brain heart infusion agar at 2 ug/ml after 24 hrs at 37 degC by disk diffusion method. To be noted: at 2 µg/mL.
Assay [29] has as its system Streptococcus intermedius. The experiment in a line: Antimicrobial activity against Streptococcus intermedius obtained from patient with cystic fibrosis assessed as non-susceptible isolates grown on mueller-Hinton blood agar at 2 ug/ml after 24 hrs at 37 degC by disk diffusion method in presence of 5% defribinated sheep blood.
Assay [30] relates to Streptococcus intermedius. The experiment in a line: Antimicrobial activity against Streptococcus intermedius obtained from patient with cystic fibrosis assessed as non-susceptible isolates grown on brain heart infusion agar at 2 ug/ml after 24 hrs at 37 degC by disk diffusion method. To be noted: at 2 µg/mL.
The test system of assay [31] is Streptococcus anginosus. The experiment in a line: Antimicrobial activity against invasive Streptococcus anginosus obtained from non-cystic fibrosis patient assessed as non-susceptible isolates grown on mueller-Hinton blood agar at 2 ug/ml after 24 hrs at 37 degC by disk diffusion method in presence of 5% defribinated sheep blood.
Assay [32] deals with Streptococcus anginosus. In words: Antimicrobial activity against invasive Streptococcus anginosus obtained from non-cystic fibrosis patient assessed as non-susceptible isolates grown on brain heart infusion agar at 2 ug/ml after 24 hrs at 37 degC by disk diffusion method. To be noted: at 2 µg/mL.
In assay [33] the test system is Streptococcus constellatus. The experiment in a line: Antimicrobial activity against invasive Streptococcus constellatus obtained from non-cystic fibrosis patient assessed as non-susceptible isolates grown on mueller-Hinton blood agar at 2 ug/ml after 24 hrs at 37 degC by disk diffusion method in presence of 5% defribinated sheep blood.
In assay [34] the test system is Streptococcus constellatus. The experiment in a line: Antimicrobial activity against invasive Streptococcus constellatus obtained from non-cystic fibrosis patient assessed as non-susceptible isolates grown on brain heart infusion agar at 2 ug/ml after 24 hrs at 37 degC by disk diffusion method. To be noted: at 2 µg/mL.
Assay [35] deals with Streptococcus intermedius. The experiment in a line: Antimicrobial activity against invasive Streptococcus intermedius obtained from non-cystic fibrosis patient assessed as non-susceptible isolates grown on mueller-Hinton blood agar at 2 ug/ml after 24 hrs at 37 degC by disk diffusion method in presence of 5% defribinated sheep blood.
Assay [36] relates to Streptococcus intermedius. In words: Antimicrobial activity against invasive Streptococcus intermedius obtained from non-cystic fibrosis patient assessed as non-susceptible isolates grown on brain heart infusion agar at 2 ug/ml after 24 hrs at 37 degC by disk diffusion method. Conditions: at 2 µg/mL.

In the case of `CN(C)[C@@H]1C(O)=C(C(N)=O)C(=O)[C@@]2(O)C(O)=C3C(=O)c4c(O)cccc4[C@@](C)(O)[C@H]3C[C@@H]12` [TETRACYCLINE], the Activity with Streptococcus anginosus [1] is on record as 27.5%; in assay [2] it was 0%; in assay [3] it was 0%; in [4] it was 33.3%; in [5] it was 0%.
`CO/N=C(\C(=O)N[C@@H]1C(=O)N2C(C(=O)[O-])=C(C[N+]3(C)CCCC3)CS[C@H]12)c1csc(N)n1`: the Activity in the assay with Streptococcus anginosus [1] turned out to be 2.5%; in the assay on Streptococcus anginosus [6], 0%; in [2] it was 0%; in [7], 0%; in [3] it was 0%; in [8], 3.1%. Moreover, the Activity (in the assay on Streptococcus anginosus [9]; in the assay with Streptococcus anginosus [10]; in assay [4]; in assay [11]; in [5]; in [12]) was 0% in each case.
Turning to `CC[C@H]1OC(=O)[C@H](C)[C@@H](O[C@H]2C[C@@](C)(OC)[C@@H](O)[C@H](C)O2)[C@H](C)[C@@H](O[C@@H]2O[C@H](C)C[C@H](N(C)C)[C@H]2O)[C@](C)(O)C[C@@H](C)CN(C)[C@H](C)[C@@H](O)[C@]1(C)O` [AZITHROMYCIN], the Activity with Streptococcus anginosus [13] is 60%; with Streptococcus anginosus [14], 56.5%; in assay [15] it was 20%; in [16] it was 65%; in assay [17], 50%; in assay [18] it was 34.4%. For the same molecule, the Activity in the assay on Streptococcus anginosus [19] is recorded as 11.1%; in the assay on Streptococcus anginosus [20], 0%; in [21], 0%; in assay [22] it was 7.7%; in assay [23], 28.6%; in assay [24], 16.7%.
Consider `CC[C@H]1OC(=O)[C@H](C)[C@@H](O[C@H]2C[C@@](C)(OC)[C@@H](O)[C@H](C)O2)[C@H](C)[C@@H](O[C@@H]2O[C@H](C)C[C@H](N(C)C)[C@H]2O)[C@](C)(O)C[C@@H](C)C(=O)[C@H](C)[C@@H](O)[C@]1(C)O` [ERYTHROMYCIN], for which the Activity in the assay with Streptococcus anginosus [13] is given as 57.5%; in the assay on Streptococcus anginosus [14], 52.2%; in [15], 20%; in assay [16], 65%; in [17] it was 50%; in [18], 34.4%. The Activity is recorded as 11.1% in the assay on Streptococcus anginosus [19]; 11.1% in the assay with Streptococcus anginosus [20]; 0% in assay [21]; 7.7% in [22]; 28.6% in assay [23]; 16.7% in assay [24].
As to `CO/N=C(\C(=O)N[C@@H]1C(=O)N2C(C(=O)O)=C(CSc3nc(=O)c(O)nn3C)CS[C@H]12)c1csc(N)n1` [CEFTRIAXONE], the Activity (in the assay on Streptococcus anginosus [1]; in [2]; in assay [3]; in the assay with Streptococcus anginosus [9]; in [4]; in assay [5]) was 0% throughout.
As for `CCC[C@@H]1C[C@@H](C(=O)N[C@@H]([C@H]2O[C@H](SC)[C@H](O)[C@@H](O)[C@H]2O)[C@H](C)Cl)N(C)C1` [CLINDAMYCIN], the Activity is listed as 52.5% in the assay on Streptococcus anginosus [25]; 56.5% in the assay with Streptococcus anginosus [26]; 20% in assay [27]; 62.5% in [28]; 50% in assay [29]; 28.1% in [30]. Besides, the Activity in the assay with Streptococcus anginosus [31] turned out to be 0%; in the assay with Streptococcus anginosus [32], 0%; in [33], 0%; in assay [34], 0%; in [35], 28.6%; in assay [36], 12.5%.
